Data on 47 compounds can be found in PubChem BioAssay (NCI).

In this experiment the test system is MDA-MB-468 breast. Description: DTP human tumour cell line panel, 48 h.

Where “and” joins values, the source holds several entries; their conditions need not be identical. Equal entries are not always repeated.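 Briefly, cells in 96-well plates were exposed to five compound concentrations for 48 h, and endpoints were estimated by linear interpolation. At the GI50, growth is halved. Definition used: TGI = concentration required for complete inhibition of growth.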

Usually GI50 stands for the concentration giving 50% growth inhibition. A word on the TGI: it is the concentration at which net growth stops. Read a high TGI as less potent growth arrest. In the case of `Nc1nc(OCc2cc(Br)cs2)c2[nH]cnc2n1`, the GI50 was 14 µM and the TGI came out at 58.6 µM. On to `O=C(c1ccccc1)c1ccc(Oc2ccc([N+](=O)[O-])cc2[N+](=O)[O-])cc1`, for which the GI50 was 1.73 µM and the TGI came out at 3.38 µM. In the same order, the values of `COc1cc2nc(SCC(=O)Nc3cc(OC)c(OC)c(OC)c3)n(Cc3ccccc3)c(=O)c2cc1OC` are 5.72 µM and 20.2 µM.

Take `O=C1Nc2c(C(F)(F)F)cccc2[C@@]1(c1ccc(O)cc1)c1ccc(OC(F)(F)F)cc1`: the GI50 is < 0.01 µM and the TGI was < 0.01 µM.

As for `CC(=O)c1cc(C(=O)c2ccc3c(c2)Sc2ccccc2N3)c2c(C)cc(C)cn12`, the GI50 was 0.496 µM and the TGI is > 100 µM. On to `Clc1ccc2c(c1)N(c1ncnc3ccc(-c4cnc5[nH]ccc5c4)cc13)CC2`, for which the concentration for 50% growth inhibition (GI50) is 0.38 µM and the TGI amounted to 13.7 µM.

Take `Clc1ccc2c(c1)N(CCCN1CCCC1)c1ccccc1S2`: the GI50 is 2.75 µM and the TGI was found to be 8.05 µM. In the same order, the values of `CCN1C(=O)N(CC)C2Nn3c(s/c(=C\c4ccccc4Br)c3=O)=NC21` (stereo not drawn) are 1.1 µM and 6.87 µM. As for `Cc1ccc(-c2cc(C(F)(F)F)nn2-c2ccc(S(N)(=O)=O)cc2)cc1`, the GI50 is 24.2 µM and the TGI is 90.7 µM.

Regarding `O=C1NC(=O)C(=C/C=C/c2ccccc2)C(=O)N1`, the GI50 was 2.99 µM and the TGI worked out at 10.1 µM.

`Nc1nc2c(s1)CCc1c-2c(Br)n(Cc2ccccc2)c1Br`: the GI50 is 2.84 µM and the TGI was 17.2 µM. The matching figures for `CC(C)(C)C(=O)OCOP(=O)(OCOC(=O)C(C)(C)C)C1CC(O)N(O)C1=O` (stereo not drawn): 5.84 µM and > 100 µM.

`Clc1cccc(Cl)c1C1CSc2ccccc2N=C1c1ccccc1` (stereo not drawn): the GI50 was 9.59 µM and the TGI is 29.2 µM. As to `CC1=CC(=C(c2ccc(N)cc2)c2ccc(N)cc2)C=CC1=N`, the GI50 was 0.373 µM and 0.411 µM; the TGI was 4.9 µM and 4.3 µM.

In the case of `c1cc2[nH]ncc2cc1-c1nc2ccc3[nH]ncc3c2c2c1CCCC2`, the GI50 was 0.403 µM and the total growth inhibition concentration (TGI) turned out to be 3.16 µM. Take `CCCNNC(=O)c1ccc(-c2ccc(NC(=O)CCCCCCC(=O)N[C@H](C(=O)N3C[C@H](O)C[C@H]3C(=O)N[C@@H](C)c3ccc(-c4scnc4C)cc3)C(C)(C)C)cc2)cc1`: the GI50 is 0.592 µM.

Turning to `O=C(/C(=C\c1ccc([N+](=O)[O-])cc1)S(=O)Cc1ccc(F)cc1)c1ccc(F)cc1` (stereo not drawn), the GI50 was 2.05 µM and the TGI was 4.36 µM. The matching figures for `O=C1c2nsnc2C(=O)c2c(F)c(F)c(F)c(F)c21`: 0.672 µM and 2.32 µM. In the case of `CC1(C)CCC2=C(O1)c1ccccc1C(=O)C2=O`, the GI50 was 1.68 µM and the TGI was determined as 3.36 µM. In the same order, the values of `Cc1ccc(-c2cc3c(SCC(=O)Nc4cc(C(F)(F)F)ccc4Cl)nccn3n2)cc1` are > 100 µM and > 100 µM. In the same order, the values of `Cc1cc(O)ccc1C1=NN(c2ccc(S(C)(=O)=O)cc2)C(=O)CC1` are 11 µM and 44.3 µM. In the same order, the values of `COc1ccc2c(c1)[nH]c(=O)c1c3cc(OC)ccc3cn21` are 0.0393 µM and 1.16 µM. `Nc1ncc(-c2ccc3ncnc(N4CCc5cc(F)c(Cl)cc54)c3c2)cn1`: the GI50 was 0.804 µM and the TGI is 3.04 µM. The matching figures for `CCCCCCCCN(CCCCCCCC)CCCCCCNc1cc(OC)cc2cccnc12`: 3.71 µM and 13.5 µM. With `CN(C)c1ccc(N=C2C=CC(=[N+](C)C)C=C2)cc1`, the GI50 was 3.04 µM and the TGI came out at 12.2 µM. In the same order, the values of `COc1ccc(C(=O)COC(=O)[C@H](C[Se][Se]C[C@H](NC(=O)c2ccc(Br)cc2F)C(=O)OCC(=O)c2ccc(OC)cc2)NC(=O)c2ccc(Br)cc2F)cc1` are 1.72 µM and 3.85 µM. The matching figures for `CS(=O)(=O)Nc1ccc(-c2cc(-c3ccccc3)cc(C(N)=O)c2N)cc1`: 14.5 µM and > 25 µM.

Turning to `COC1CCN(C(=O)c2cc(Cc3n[nH]c(=O)c4ccccc34)ccc2F)CC1`, the GI50 is 30 µM and the TGI is > 100 µM. In the same order, the values of `Cl.Fc1c[c-]c(-c2ccccn2)c(F)c1.[Pt].c1ccc(P(c2ccccc2)C([PH+](c2ccccc2)c2ccccc2)[PH+](c2ccccc2)c2ccccc2)cc1` are 2.69 µM and 19.5 µM.

`COc1cc(-c2nc3ccccc3s2)ccc1NC(=O)COc1ccc(Cl)cc1`: the GI50 was 2.08 µM and the TGI turned out to be 56.6 µM. The matching figures for `COC(=O)[C@]12CC[C@@H](C)[C@H](C)[C@@H]1C1=CC[C@@H]3[C@@]4(C)C(C=O)=C[C@@](C)(COC(C)=O)C4=CC[C@@]3(C)[C@]1(C)CC2`: 4.21 µM and 17.7 µM. For `CCCCCCCCCCCCCC1=NCCN1CCO`, the GI50 was 2.12 µM and the concentration for total growth inhibition (TGI) was determined as 5.58 µM. In the same order, the values of `O=[N+]([O-])c1ccccc1N/N=C\c1c[nH]c2ccccc12` are 1.13 µM and 5.85 µM. The matching figures for `O=C1C(=O)c2c(nc3ccc(Br)cn23)-c2ccccc21`: 1.53 µM and 3.22 µM. In the same order, the values of `Cn1cc(C2=C(c3cn(C)c4c([N+](=O)[O-])cccc34)C(=O)NC2=O)c2ccccc21` are > 25 µM and > 25 µM.

As for `COc1ccc(C(=O)c2cc(OC)c(OC)c(OC)c2)cc1/C=C/C(=O)c1ccc(OC)c(OC)c1`, the GI50 was 1.25 µM and the total growth inhibition concentration (TGI) was determined as 77.7 µM. Turning to `COc1ccc(C(SCC(N)C(=O)O)(c2ccccc2)c2ccccc2)cc1` (stereo not drawn), the GI50 is 0.0627 µM and the TGI is > 78.1 µM. The matching figures for `C/C(=C\CCc1ccoc1)CC/C=C(\C)CCCN1CCOCC1`: 2.58 µM and 9.59 µM. The matching figures for `CN(Cc1cc(Br)cc(Br)c1O)Cc1cc(Br)cc(Br)c1O`: 2.09 µM and 13 µM.

For `CCOC(=O)n1cc(C2=C(c3cn(C)c4ccccc34)COC2=O)c2ccccc21`, the GI50 was 0.053 µM and the total growth inhibition concentration (TGI) is > 100 µM. The matching figures for `Cc1ccc(C(SCC(N)C(=O)O)(c2ccc(C)cc2)c2ccc(C)cc2)cc1` (stereo not drawn): 1.46 µM and 16.6 µM. With `C=CC(=O)NCc1cccc(Nc2ncc(Br)c(NCCCNC(=O)C3CCC3)n2)c1`, the GI50 is 1.64 µM and 1.02 µM; the TGI was 4.33 µM and 5 µM. Take `NC(=O)c1ccc(NN=O)nc1`: the GI50 is > 100 µM and the TGI is > 100 µM.

As for `NC1CCC(Nc2nc(NCc3ccc(-c4cccs4)nc3)c3ncn(C4CCCC4)c3n2)CC1` (stereo not drawn), the GI50 is < 0.0134 µM and the concentration for total growth inhibition (TGI) is 0.035 µM. The matching figures for `C[C@H](Nc1ncnc2nc[nH]c12)c1cc2ccc(F)cc2nc1-c1ccccn1`: 31.9 µM and > 100 µM.

As for `[O-][n+]1ccccc1S`, the GI50 was 4.15 µM and the TGI is 45.2 µM. The matching figures for `Cc1ccccc1-n1ncc(C(=O)c2ccccc2)c1N`: > 25 µM and > 25 µM.
